Laboratory results reported in US20250136583A1, “NOVEL SALT FORMS OF ISOCHROMAN-IMIDAZOLE STRUCTURED ALPHA-2A ADRENOCEPTOR AGONIST” (ORION CORPORATION, priority 2022, published 2025).
Structures can show the parent of a compound that is named as a salt.

Columns and labels:
[1] = Physical stability of the salts (storage at elevated temperature and relative humidity, re-analysis by XRPD); type: physicochemical; settings: for Form after stability / Physical stability: solids exposed for 2 or 3 weeks at 40° C. and 70-80% relative humidity; for Form after stability: XRPD; for Physical stability: re-analyzed by XRPD
Procedure: XRPD measurements were performed with the X-ray powder diffractometer Bruker D8 Advance at room temperature, using a copper filled X-ray tube (40 kV×40 mA) as the X-ray source, CuKα (λ=1.5418 Å), a 0.6 mm divergence slit, 2.5° Soller slits on both the primary and secondary beams and the 1-dimensional LynxEye detector (with aperture angle of 2.91593°). Data collection was done in the range of 3.8-33° 2θ with 0.02° increments, at a scan speed of 0.3°/s.
A stability test was carried out for all crystalline salt forms resulted from the salt screen by exposing the solids for 2 or 3 weeks at 40° C. and 70-80% relative humidity. After exposure, the solids were re-analyzed by XRPD, followed by physical stability assessment.

[2] = Chemical stability of the salts (stress at 60° C. and 75% relative humidity, purity by UHPLC); type: physicochemical; settings: for Purity (%) of 1 day stress samples / Difference between reference and 1 day stressed sample: 1 day at 60° C. and 75% relative humidity; for Purity (%) of 1 day stress samples / Purity (%) of 14 day stress samples / Purity (%) of reference: UHPLC; for Difference between reference and 1 day stressed sample / Difference between reference and 14 day stressed sample: purity difference, in %; for Purity (%) of 14 day stress samples / Difference between reference and 14 day stressed sample: 14 days at 60° C. and 75% relative humidity; for Purity (%) of reference: unstressed sample; for Chemical stability (in words): summary statement
Procedure: The purity analyses were performed using Agilent UHPLC equipment with PDA/DAD detector at 210 nm wavelength and reverse phase liquid chromatography column Acquity UPLC HSS T3, 100×3.0 mm, 1.8 μm (Waters). The chromatography was performed with gradient run using acetonitrile and phosphate buffer (pH 3.0) as eluents.
The chemical stability of various salts of compound (I) was determined by stressing the salts for 1 and 14 days at 60° C. and 75% relative humidity. The unstressed sample was used as an reference. The purity of the samples were analyzed using UHPLC, and the purity difference between the stressed and reference was calculated.

alpha2A receptor = target: T1, alpha2A receptor (Homo sapiens, UniProt P08913); settings: background, WO 2013/150173; cited from earlier work
T1 sequence (P08913 1-465): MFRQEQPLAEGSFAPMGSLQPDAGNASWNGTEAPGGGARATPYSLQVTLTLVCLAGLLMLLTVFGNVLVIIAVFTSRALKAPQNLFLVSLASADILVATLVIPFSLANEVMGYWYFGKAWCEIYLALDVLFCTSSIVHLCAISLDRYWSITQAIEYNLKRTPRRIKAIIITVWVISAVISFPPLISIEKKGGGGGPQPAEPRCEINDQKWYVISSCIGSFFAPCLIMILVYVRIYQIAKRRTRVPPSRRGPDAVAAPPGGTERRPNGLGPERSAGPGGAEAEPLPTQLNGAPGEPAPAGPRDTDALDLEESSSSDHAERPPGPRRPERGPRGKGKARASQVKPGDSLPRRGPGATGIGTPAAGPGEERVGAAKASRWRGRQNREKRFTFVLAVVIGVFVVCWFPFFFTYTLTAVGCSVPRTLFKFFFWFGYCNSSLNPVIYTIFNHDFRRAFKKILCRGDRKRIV

[3] = listed as Napthalene-1,5-disulfonic acid salt

| Compound | Form after stability [1] | Physical stability [1] | Purity (%) of 1 day stress samples [2] | Difference between reference and 1 day stressed sample [2] | Purity (%) of 14 day stress samples [2] | Difference between reference and 14 day stressed sample [2] | Purity (%) of reference [2] | Chemical stability (in words) [2] | also measured |
| --- | --- | --- | --- | --- | --- | --- | --- | --- | --- |
| COc1cccc2c1CCOC2C1=NCCN1 [L-tartaric acid salt Form 2, 2-(5-methoxyisochroman-1-yl)-4,5-dihydro-1H-imidazole] | Form 1 | Unstable | 97.5% | 1.0 | 88.3% | 10.3 | 98.6% |  | Crystalline form conversion on storage ([1]; 40° C., 75% RH for 3 weeks): turned into form 1; Form after stability ([1]; listed as L-tartaric acid (form 2)): completely |
| COc1cccc2c1CCOC2C1=NCCN1 (stereo not shown) [Mucic acid salt Form 1, 2-(5-methoxyisochroman-1-yl)-4,5-dihydro-1H-imidazole] | Form 1 | Stable | 97.7% | 1.6 | 35.6% | 63.6 | 99.2% |  | Physical stability ([1]; listed as mucic acid): remained stable |
| COc1cccc2c1CCOC2C1=NCCN1 (stereo not shown) [Hydrobromic acid salt Form 1, 2-(5-methoxyisochroman-1-yl)-4,5-dihydro-1H-imidazole] | Form 1 | Stable | 98.1% | 0.2 | 98.2% | 0.1 | 98.3% | good chemical stability | Physical stability ([1]; listed as hydrobromic acid): remained stable |
| COc1cccc2c1CCOC2C1=NCCN1 (stereo not shown) [Ethane-1,2-disulfonic acid salt Form 1, 2-(5-methoxyisochroman-1-yl)-4,5-dihydro-1H-imidazole] | Form 1 | Stable | 99.8% | 0.0 | 99.8% | 0.0 | 99.8% | good chemical stability | Physical stability ([1]; listed as ethane-1,2-disulfonic acid): remained stable |
| COc1cccc2c1CCOC2C1=NCCN1 (stereo not shown) [Tasipimidine, 2-(5-methoxyisochroman-1-yl)-4,5-dihydro-1H-imidazole] |  |  |  |  |  |  |  |  | Activity on adrenergic alpha2 receptors, especially alpha2A receptor (alpha2A receptor): agonistic activities |

Second part, led by results:

| Form after stability [1] | Physical stability [1] | Purity (%) of 1 day stress samples [2] | Difference between reference and 1 day stressed sample [2] | Purity (%) of 14 day stress samples [2] | Difference between reference and 14 day stressed sample [2] | Purity (%) of reference [2] | Chemical stability (in words) [2] | Compound | also measured |
| --- | --- | --- | --- | --- | --- | --- | --- | --- | --- |
| Form 2 | Stable | 97.6% | −0.3 | 98.0% | −0.8 | 97.2% |  | COc1cccc2c1CCOC2C1=NCCN1 (stereo not shown) [Fumaric acid salt Form 2, 2-(5-methoxyisochroman-1-yl)-4,5-dihydro-1H-imidazole] | Physical stability ([1]; listed as fumaric acid (form 2)): remained stable |
| Form 1 | Stable | 89.8% | 8.7 | 69.0% | 29.5 | 98.6% |  | COc1cccc2c1CCOC2C1=NCCN1 (stereo not shown) [Hydrochloric acid salt Form 1, 2-(5-methoxyisochroman-1-yl)-4,5-dihydro-1H-imidazole] | Physical stability ([1]; listed as hydrochloric acid): remained stable |
| Form 1 | Stable |  |  |  |  |  | good chemical stability | COc1cccc2c1CCOC2C1=NCCN1 (stereo not shown) [Naphthalene-1,5-disulfonic acid salt Form 1] [2-(5-methoxyisochroman-1-yl)-4,5-dihydro-1H-imidazole] | Physical stability ([1]; listed as naphthalene-1,5-disulfonic acid): remained stable; Purity (%) of 1 day stress samples [2, 3]: 96.1%; Difference between reference and 1 day stressed sample [2, 3]: 0.2; Purity (%) of 14 day stress samples [2, 3]: 95.7%; Difference between reference and 14 day stressed sample [2, 3]: 0.6; Purity (%) of reference [2, 3]: 96.3% |
